± gives the standard deviation of the averaged measurements.
Tested on: RD-ES
Test: relative viability vs DMSO control (72 h) (fraction); higher = more viable cells
Outline: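 Sarcoma cell lines were seeded in 384-well plates at densities chosen for 80–90% confluence, then 24 h later given 2.5 µl of serially diluted compound drawn from source plates spanning 10 mM to 0.0002 mM. They were held 72 h at 37 °C, 5% CO2, with 0.1% DMSO vehicle and a 5 µM positive control included. Relative viability was read with ATPLite as percent growth and averaged over up to triplicate wells. Rescaling placed full at 1 and none at 0.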

Structure (SMILES)	relative viability (0.00017 µM)	relative viability (0.00051 µM)	relative viability (0.00152 µM)	relative viability (0.00457 µM)	relative viability (0.01372 µM)	relative viability (0.04115 µM)	relative viability (0.1235 µM)	relative viability (0.3704 µM)	relative viability (1.111 µM)	relative viability (3.333 µM)	relative viability (10 µM)
CCN1CCN(Cc2ccc(Nc3ncc(F)c(-c4cc(F)c5nc(C)n(C(C)C)c5c4)n3)nc2)CC1 [Abemaciclib]	0.975 ± 0.016	0.9649 ± 0.0077	0.988 ± 0.02	0.961 ± 0.027	0.908 ± 0.047	0.771 ± 0.038	0.638 ± 0.014	0.544 ± 0.015	0.526 ± 0.074	0.447 ± 0.057	0.292 ± 0.023
CC(C)NC(=O)C1CCC(n2c(NC(=O)c3ccc(F)cc3)nc3ccc(CN4CCC(C(C)(C)O)CC4)cc32)CC1 (stereo unspecified) [Belizatinib]	1.01 ± 0.025	1.02 ± 0.021	0.997 ± 0.021	1.02 ± 0.013	1.03 ± 0.021	0.995 ± 0.021	0.907 ± 0.01	0.648 ± 0.02	0.455 ± 0.014	0.395 ± 0.016	0.261 ± 0.009
CC[C@H](Nc1ncnc2[nH]cnc12)c1nc2cccc(F)c2c(=O)n1-c1ccccc1 [Idelalisib]	0.9939 ± 0.0089	0.99 ± 0.033	0.977 ± 0.04	0.984 ± 0.037	0.977 ± 0.033	0.98 ± 0.019	0.982 ± 0.028	0.97 ± 0.027	0.909 ± 0.026	0.88 ± 0.034	0.744 ± 0.019
CC(C)(C)c1cc(NC(=O)Nc2ccc(-c3cn4c(n3)sc3cc(OCCN5CCOCC5)ccc34)cc2)no1 [Quizartinib]	0.968 ± 0.018	0.983 ± 0.028	0.993 ± 0.018	0.9932 ± 0.0065	0.993 ± 0.011	0.995 ± 0.005	0.986 ± 0.02	1 ± 0.025	0.991 ± 0.019	0.951 ± 0.043	0.869 ± 0.035
Cc1cnc(Nc2ccc(OCCN3CCCC3)cc2)nc1Nc1cccc(S(=O)(=O)NC(C)(C)C)c1 [Fedratinib]	1.01 ± 0.013	1 ± 0.036	1.02 ± 0.032	1.01 ± 0.027	0.98 ± 0.034	0.972 ± 0.024	0.904 ± 0.026	0.7114 ± 0.0066	0.145 ± 0.0063	0.00883 ± 0.0011	0.00587 ± 0.0018
CC1(C)CNc2cc(NC(=O)c3cccnc3NCc3ccncc3)ccc21 [Motesanib]	0.969 ± 0.051	0.962 ± 0.048	0.957 ± 0.05	1.01 ± 0.038	0.964 ± 0.053	0.994 ± 0.033	0.989 ± 0.035	0.991 ± 0.04	0.989 ± 0.038	0.974 ± 0.062	0.846 ± 0.015
Nc1cc(C(F)(F)F)c(-c2cc(N3CCOCC3)nc(N3CCOCC3)n2)cn1 [Buparlisib]	0.97 ± 0.037	0.956 ± 0.025	0.946 ± 0.026	0.949 ± 0.021	0.935 ± 0.013	0.922 ± 0.01	0.864 ± 0.0088	0.717 ± 0.021	0.341 ± 0.0073	0.102 ± 0.0037	0.0722 ± 0.0025
Cc1cc(C)c(/C=C2\C(=O)Nc3ccccc32)[nH]1 [Semaxanib]	0.962 ± 0.022	0.973 ± 0.034	0.961 ± 0.052	0.994 ± 0.02	0.969 ± 0.053	0.976 ± 0.013	0.93 ± 0.024	0.965 ± 0.026	0.915 ± 0.064	0.871 ± 0.033	0.792 ± 0.012
CCc1cc2c(cc1N1CCC(N3CCOCC3)CC1)C(C)(C)c1[nH]c3cc(C#N)ccc3c1C2=O [Alectinib]	0.9941 ± 0.0039	0.997 ± 0.011	0.993 ± 0.016	0.997 ± 0.025	0.988 ± 0.026	1 ± 0.029	1.03 ± 0.039	0.988 ± 0.036	1.04 ± 0.029	1.04 ± 0.014	1.03 ± 0.034
Cn1cnc2c(F)c(Nc3ccc(Br)cc3F)c(C(=O)NOCCO)cc21 [Binimetinib]	0.9413 ± 0.0039	0.9487 ± 0.0073	0.976 ± 0.024	0.969 ± 0.026	0.942 ± 0.025	0.938 ± 0.053	0.962 ± 0.043	0.919 ± 0.061	0.883 ± 0.026	0.925 ± 0.034	0.879 ± 0.042
C=CC(=O)Nc1cccc(Oc2nc(Nc3ccc(N4CCN(C)CC4)cc3)nc3ccsc23)c1 [Olmutinib]	0.914 ± 0.052	0.949 ± 0.025	0.953 ± 0.022	0.953 ± 0.0047	0.9443 ± 0.0083	0.978 ± 0.015	0.979 ± 0.02	0.977 ± 0.012	0.9749 ± 0.0091	0.931 ± 0.068	0.774 ± 0.074
CN1CCN(c2ccc3nc(-c4c(N)c5c(F)cccc5[nH]c4=O)[nH]c3c2)CC1 [Dovitinib]	0.955 ± 0.025	0.944 ± 0.067	0.949 ± 0.024	0.943 ± 0.026	0.937 ± 0.014	0.893 ± 0.021	0.899 ± 0.045	0.829 ± 0.027	0.575 ± 0.013	0.24 ± 0.019	0.0296 ± 0.0072
O=C(Cc1ccc(-c2ccc(OCCN3CCOCC3)cc2)cn1)NCc1ccccc1 [KX2-391]	0.984 ± 0.025	1.002 ± 0.0063	1.01 ± 0.029	0.996 ± 0.017	0.973 ± 0.022	0.674 ± 0.021	0.0817 ± 0.0038	0.0547 ± 0.0048	0.0489 ± 0.0023	0.0417 ± 0.0023	0.0395 ± 0.0014
C[C@@H]1COCCN1c1cc(-c2ccnn2C)c2ccnc(-c3ccn[nH]3)c2n1	0.987 ± 0.036	1.02 ± 0.044	1.04 ± 0.047	1.02 ± 0.04	1.01 ± 0.034	0.957 ± 0.0036	0.686 ± 0.026	0.279 ± 0.015	0.113 ± 0.096	0.155 ± 0.019	0.156 ± 0.0075
CNC(=O)c1cc(Oc2ccc(NC(=O)Nc3ccc(Cl)c(C(F)(F)F)c3)c(F)c2)ccn1 [Regorafenib]	0.965 ± 0.055	0.959 ± 0.053	0.991 ± 0.036	0.975 ± 0.047	0.983 ± 0.042	0.979 ± 0.014	0.986 ± 0.034	0.973 ± 0.052	0.932 ± 0.058	0.87 ± 0.043	0.776 ± 0.033
Cc1ccc(NC(=O)c2ccc(CN3CCN(C)CC3)cc2)cc1Nc1nc(-c2cccnc2)cs1 [Masitinib]	0.959 ± 0.018	0.957 ± 0.034	0.9656 ± 0.0031	0.965 ± 0.032	0.948 ± 0.041	0.985 ± 0.011	0.912 ± 0.047	0.86 ± 0.05	0.726 ± 0.043	0.519 ± 0.027	0.183 ± 0.0068

Reference: the supplement of paper PMC10883282
